Common to all, as to type: cell-based
One assay concerns human cells. Description: Collagen production under different concentrations of vitamin C, human cells (FIG. 7C, 7D). The settings on record: seeding density 40,000 or 70,000 cells/well, 96 well plate. From the text:
(§1) In another example, a collagen detection method using a dual dye assay is described and depicted in FIG. 4. This method measures collagen content of samples using dyes in order to estimate collagen production of adherent cells in cultures without extracting the collagen. Samples may include bovine derma primary fibroblast cell lines or BJ human fibroblast/primary cells, among others not explicitly listed herein. Materials utilized in the method of FIG. 4 include: about 70% ethanol, sterile water, picric acid (or 2,4,6-trinitrophenol), about 0.1% Fast Green FCF solution in saturated picric acid, about 0.4% Fast Green FCF solution and about 0.11% Sirius Red in the saturated picric acid, and about 0.1% NaOH in methanol. The Fast Green FCF dye is used for total protein and the Sirius Red dye is used for collagen content determination. Equipment utilized with the method of FIG. 4 includes a laminar flow cabinet, a spectrophotometer, and a pipette. A process step 406 follows the process step 404 and includes adding a saturated solution of picric acid in distilled water containing a first amount of the Fast Green dye. In examples, the first amount of the Fast Green dye is about 0.01%. […] A process step 420 follows the process step 418 and includes utilizing the spectrophotometer to measure an absorbance at 540 nm and 630 nm. […]

The test system of assay [1] is bovine cells. Description: Collagen production under different concentrations of vitamin C, bovine cells (FIG. 7A, 7B). The settings on record: seeding density 40,000 or 70,000 cells/well, 96 well plate.
Excerpt: as §1

A further assay has as its system porcine cell line. The assay is described as follows: Factor supplementation, Sircol Collagen Assay, commercially available porcine cell line. The settings on record: 3-10 days with factor. How it is done:
(§2) In this embodiment, cells were seeded at approximately 3500-4500 cells per well of a 48 well-plate and were allowed to settle for about 48 hours before adding the factor. After about 48 hours, spent media was removed and replaced with growth media supplemented with the factor of interest. Cells continued to grow for about 3-10 days following initial introduction of the factor and a collagen content was quantified with a Sircol™ Collagen Assay. Additionally, experiments were conducted with and without media/factor replenishment about every 48-72 hours.

Another assay concerns human KEL-FIB cell line. The assay is described as follows: Factor supplementation, Sircol Collagen Assay, human KEL-FIB cell line. As to conditions: for collagen production: 3-10 days with factor. How it is done: as §2
The next assay has as its system bovine cell lines. Description: Factor supplementation, Sircol Collagen Assay, commercially available bovine cell lines. The settings on record: for collagen production: commercially available bovine cell lines, 3-10 days with factor. As for the experimental part:
as §2

Assay [2] deals with bovine cells. Description: Effects of ginseng, palmitoleic acid and spirulina on total protein content in bovine cells (FIG. 8-10). The text has this: (§3) Moreover, FIG. 8 depicts a graph showing effects of ginseng on collagen production in various cell types. FIG. 8 has an x-axis 802 associated with a cell type and a ginseng concentration in μg/mL and a […] measuring a collagen concentration 806 and a protein concentration 808.
(§4) Further, FIG. 9 depicts a graph showing effects of palmitoleic acid on collagen production in various cell types. FIG. 9 has an x-axis 902 associated with a cell type and a palmitoleic acid concentration in μg/mL and a y-axis 904 measuring a collagen concentration 906 and a protein concentration 908.
(§5) FIG. 10 depicts a graph showing effects of a spirulina extract on collagen production in various cell types. FIG. 10 has an x-axis 1002 associated with a cell type and a spirulina extract concentration in μg/mL and a y-axis 1004 measuring a collagen concentration 1006 and a protein concentration 1008.
(§6) However, a total protein content is increased in bovine cells.

The subject of another assay is various cell types. The assay is described as follows: Effects of ginseng, palmitoleic acid and spirulina on collagen production in various cell types (FIG. 8-10).
Excerpt: as §3, §4, §5, §6

Structures are written as SMILES.

For `O=C1O[C@H]([C@@H](O)CO)C(O)=C1O` [vitamin C], the “concentration of vitamin C at which the highest collagen concentration resulted” value in the assay with human cells and in the assay with bovine cells [1] was 10 to 100 mg/mL in each case. The collagen production entry with porcine cell line, in the assay with human KEL-FIB cell line and in the assay with bovine cell lines was “increased” throughout. For the same molecule, the “increase of collagen production” value is reported as “about 50%” with human KEL-FIB cell line and 28-36% in the assay with bovine cell lines (bovine cell lines).

Turning to `CCCCCC/C=C\CCCCCCCC(=O)O` [palmitoleic acid], the total protein content entry in the assay on bovine cells [2] is recorded as “increased”. For the same molecule, the “effect on collagen production” value in the assay with various cell types was “do not have a large effect”.

As to `O=S(=O)([O-])[O-].[Zn+2]` [zinc sulfate], the collagen production result in the assay with porcine cell line, with human KEL-FIB cell line and with bovine cell lines was “increased” throughout.

The record behind these values is US20220112267A1, “PRODUCE AND ISOLATE AND/OR EXTRACT COLLAGEN AND/OR GELATIN FROM ANIMAL CELL LINES AND/OR TISSUE EXPLANTS” (Jellatech, Inc., priority 2020, published 2022).
